Experimental data as given in patent US20060239913A1, “Peptide conjugate for magnetic resonance imaging” (priority 2003, published 2006).

Legend:
ApoE-KO mice = assay: Biodistribution assay in ApoE-KO mice (Gd by ICP-MS); type: in vivo
Method: (§1) Animals—the tissue distribution of compound B, when compared to Gd-DOTA, was performed in ApoE-KO mice in a 100% C57Bl/6 background. The animals were bred and housed in the Animal Experiment Unit of the Center of Molecular and Vascular Biology, Leuven, Belgium, and had free access to food and water.
(§2) ApoE-KO mice of 11-12 weeks were fed a cholesterol-rich Western-type diet (Tecklad, Madison, USA) for 4 months. This model of atherosclerosis was fully characterized: it contained extensive atherosclerotic plaques in the heart and aortic arch, where the plaques occupied 34% of the total lumen area. […] Biodistribution—After the diet period, animals were matched for sex and body weight. compounfd B or Gd-DOTA was administered intravenously via the tail vein (n=7/compound), at a clinical dose of 100 μmol Gd/kg. 60 min post-injection, the animals were anaesthetized and blood was obtained via eye bleeding. The mice were then subjected to a transcardiac perfusion with heparinized saline, in order to clear the intravascular compartment from any residual circulating contrast agent. Muscle and different organs (kidney, liver) were removed, as well as some artery specimens (aortic arch, carotid arteries, thoracic aorta, abdominal aorta and femoral artery). Finally, an aliquot of the blood sample was centrifuged and the Gd^3+ contained in all the collected samples was quantified by induced coupled plasma—mass spectrometry (ICP-MS) after acidic mineralization.

[1] = tested on: artery slices originating from Watanabe Heritable Hyperlipidemic rabbits; assay: Ex vivo MRI and Gd quantification on WHHL rabbit artery slices; details: for ex vivo MRI enhancement of the sections / amount of Gd in the sections by ICP-MS (mean value): after 1 h; for ex vivo MRI enhancement of the sections: 3 h or 18 h incubation; for amount of Gd in the sections by ICP-MS (mean value): 3 h or 18 h incubation at 5×10^−4 M Gd, no washing
Excerpt: Specimen preparation—Watanabe Heritable Hyperlipidemic rabbits (CAP, Olivet, France), which develop hypercholesterolemia and subsequent atherosclerosis due to a genetic deficiency of LDL receptors, were profoundly anaesthetized. After their sacrifice by exsanguination, the arterial tree, comprising the aortic arch with the beginning of the efferent arteries, as well as the thoracic aorta and the supra-renal abdominal aorta, was removed in one block and flushed with heparinized Krebs-Ringer Bicarbonate buffer (pH=7.4) in order to clean any remaining blood. The arterial specimen was then kept frozen at −20° C.; it was gently and extemporarily unfrozen for experimental purpose.
(§3) Finally, both rabbits and human atherosclerotic segments were cut in exactly 3.0 mm-thick sections, before their contact with the contrast medium and ex vivo imaging.
Ex vivo incubation—All the slices were deposited in a 24-wells culture plate. They were then incubated under stirring at 37° C., in 1.0 ml of Krebs-Ringer Bicarbonate buffer (pH=7.4), Gd-DOTA or compound B (at a Gd concentration of 5×10^−4 M). After pre-determined incubation periods of 1 h, 3 h or 18 h, the slices originating from the WHHL rabbits were either immediately imaged, or subjected to a washing during 30 min, 1 h or 3 h (n=3 for each condition) in 10.0 ml of Krebs-Ringer bicarbonate buffer, with the medium being replaced every hour. Regarding human samples, only the protocol which allowed the best differentiation between the compounds (i.e. an incubation period of 18 h, followed by a washing of 30 min) was applied. Afterwards, all the slices were drained and prepared for ex vivo imaging. Further the protocol was applied both regarding to lesional plaques and not lesional plaques specimens.
Specificity testing—To additionally test the specificity of the compound B uptake, we repeated the ex vivo 18 h-incubation with a new set of WHHL rabbit atherosclerotic slices which were previously incubated during 30 min with the hydroxamate peptide, at a 10 times higher concentration than COMPOUND B (i.e. 5×10^−3 M). The samples were subsequently washed during 30 min, as previously described.
Detection of the contrast media by ex vivo imaging and Gd quantification—For ex vivo MRI, the aortic slices were transferred in a new 24-wells plate and embedded in a semi-solid agar-agar gel (0.8% m/v) at room temperature. Images were performed on a 2.35 T MRI system (Biospec, Bruker, Germany), using a 7 cm inner diameter birdcage coil and a 200 mT/m insert gradient. A 3D T1w SNAP sequence was acquired with following parameters (TR/TE/α=20 ms/4.2 ms/75°, Matrix 256*256*16, resolution 235*175*1000 μm^3, duration 21′49″) to have a compromise between resolution, short duration for screening and sections localization. Finally, the gel was removed from the aortic segments and the Gd contained in each precisely weighed sample was quantified by ICP-MS after acidic mineralization.

[2] = tested on: atherosclerotic human sections (carotid artery); assay: Ex vivo MRI and Gd quantification on human carotid endarterectomy sections; details: 18 h incubation, 30 min washing
Method: Samples of fresh carotid artery were obtained from patients (n=21) undergoing carotid endarterectomy. Specimen consisted of the common carotid artery, as well as the internal and external carotid arteries. The excised plaques were rinsed in ice-cold saline and they were used in the 2-4 hours following surgery.
as §3
Ex vivo incubation—All the slices were deposited in a 24-wells culture plate. […] After pre-determined incubation periods of 1 h, 3 h or 18 h, the slices originating from the WHHL rabbits were either immediately imaged, or subjected to a washing during 30 min, 1 h or 3 h (n=3 for each condition) in 10.0 ml of Krebs-Ringer bicarbonate buffer, with the medium being replaced every hour. […]
Detection of the contrast media by ex vivo imaging and Gd quantification—For ex vivo MRI, the aortic slices were transferred in a new 24-wells plate and embedded in a semi-solid agar-agar gel (0.8% m/v) at room temperature. […] Finally, the gel was removed from the aortic segments and the Gd contained in each precisely weighed sample was quantified by ICP-MS after acidic mineralization.

human MMP-1 [3] = target: T1, human MMP-1 (Homo sapiens, UniProt P03956); assay: In vitro MMP inhibition assay (fluorimetric), MMP-1; type: biochemical; details: for inhibitory activity on MMP-1 (in words): concentration of 1.0E-05 M; for % inhibition of control values: mean of duplicate
T1 construct: endogenous in cells; host or cells: human rheumatoid synovial fibroblast
T1 sequence (P03956 100-469): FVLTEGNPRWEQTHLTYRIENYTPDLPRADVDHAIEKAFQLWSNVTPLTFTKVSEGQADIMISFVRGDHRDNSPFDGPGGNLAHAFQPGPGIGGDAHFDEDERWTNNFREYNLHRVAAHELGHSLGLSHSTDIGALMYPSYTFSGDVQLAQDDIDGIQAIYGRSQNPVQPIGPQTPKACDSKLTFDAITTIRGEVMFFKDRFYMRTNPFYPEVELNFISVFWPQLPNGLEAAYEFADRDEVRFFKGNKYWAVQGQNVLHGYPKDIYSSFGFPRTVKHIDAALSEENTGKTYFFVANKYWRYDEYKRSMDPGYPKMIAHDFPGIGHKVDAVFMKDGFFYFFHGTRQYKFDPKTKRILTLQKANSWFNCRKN
Method: (§4) The ability of compound B or the corresponding peptide hydroxamate to inhibit MMP-1, MMP-2 or MMP-3 activity was tested in vitro, on human enzymes. The reaction was based on the formation of a fluorescent compound produced after MMP-cleavage of a substrate (see table 1 for experimental conditions). Briefly, compound B or the peptide alone was added at 3 different concentrations to a buffer containing the MMP to test. For the control sample, the contrast agent or the peptide was replaced by water. After a pre-incubation period of 30 min at 37° C., the fluorescence intensity was measured using a microplate reader (GeminiXS, Molecular Devices), in order to detect any compound interference with the fluorimetric assay (═F1). The enzymatic reaction was then initiated by the addition of the MMP substrate and the mixture was again incubated at 37° C. After a pre-determined time, a second fluorescent measurement was performed (═F2). The enzyme activity was determined by subtracting the signal F1 from F2, and the results were expressed as a percent inhibition of the control enzyme activity.

human MMP-2 [4] = target: T2, human MMP-2 (Homo sapiens, UniProt P08253); assay: In vitro MMP inhibition assay (fluorimetric), MMP-2; type: biochemical; details: for inhibitory activity on MMP-2 (in words): concentration of 1.0E-05 M; for % inhibition of control values: mean of duplicate
T2 construct: endogenous in cells; host or cells: human rheumatoid synovial fibroblast
T2 sequence (P08253 110-660): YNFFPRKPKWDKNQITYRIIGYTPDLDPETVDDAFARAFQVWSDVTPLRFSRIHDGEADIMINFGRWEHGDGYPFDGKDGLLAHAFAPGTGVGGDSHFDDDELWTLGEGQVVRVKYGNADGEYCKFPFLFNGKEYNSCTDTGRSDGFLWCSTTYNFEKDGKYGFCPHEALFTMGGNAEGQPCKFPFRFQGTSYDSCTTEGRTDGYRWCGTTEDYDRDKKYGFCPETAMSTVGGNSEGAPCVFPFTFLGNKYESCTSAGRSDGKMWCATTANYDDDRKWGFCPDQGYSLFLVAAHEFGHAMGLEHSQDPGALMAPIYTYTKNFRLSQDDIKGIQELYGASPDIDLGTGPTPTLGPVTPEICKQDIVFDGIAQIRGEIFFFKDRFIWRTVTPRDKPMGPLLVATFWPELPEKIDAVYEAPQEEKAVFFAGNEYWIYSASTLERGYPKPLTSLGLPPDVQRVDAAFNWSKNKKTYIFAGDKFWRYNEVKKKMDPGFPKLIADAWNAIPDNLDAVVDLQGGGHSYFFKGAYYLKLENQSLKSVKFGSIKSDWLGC
Method: as §4, with “The” for “The ability of compound B or the corresponding peptide hydroxamate to inhibit MMP-1, MMP-2 or MMP-3 activity was tested in vitro, on human enzymes. The”, “Briefly, compound B or the peptide alone was added at 3 different concentrations to a buffer containing the MMP to test.” left out

[5] = Biodistribution assay in ApoE-KO mice (Gd by ICP-MS); type: in vivo; details: C57Bl/6 background, mouse, plasma, iv, 100 μmol Gd/kg, i.v., read-out: half-life of elimination in plasma
Method: as §1, §2

human MMP-3 [6] = target: T3, human MMP-3 (Homo sapiens, UniProt P08254); assay: In vitro MMP inhibition assay (fluorimetric), MMP-3; type: biochemical; details: for % inhibition of control values: mean of duplicate
T3 construct: made in house; host or cells: Sf9 insect cells
Method: as §4

human MMP-1 [7] = target: T1, human MMP-1; details: reported value; cited from earlier work
human MMP-2 [8] = target: T2, human MMP-2; details: reported value; cited from earlier work
human MMP-3 [9] = target: T3, human MMP-3; details: reported value; cited from earlier work

T3 sequence (P08254 100-477): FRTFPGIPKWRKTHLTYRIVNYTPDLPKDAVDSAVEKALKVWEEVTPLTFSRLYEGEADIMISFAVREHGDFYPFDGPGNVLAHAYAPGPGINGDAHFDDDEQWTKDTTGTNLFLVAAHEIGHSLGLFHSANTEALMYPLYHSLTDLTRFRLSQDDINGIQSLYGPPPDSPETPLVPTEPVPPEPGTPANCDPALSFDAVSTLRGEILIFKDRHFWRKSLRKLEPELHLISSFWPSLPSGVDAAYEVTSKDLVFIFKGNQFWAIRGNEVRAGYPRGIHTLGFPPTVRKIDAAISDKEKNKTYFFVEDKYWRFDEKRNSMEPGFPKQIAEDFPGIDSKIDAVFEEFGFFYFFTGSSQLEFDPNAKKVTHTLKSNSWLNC

## O=C([O-])CN1CCN(CC(=O)[O-])CCN(CC(=O)O)CCN(CC(=O)[O-])CC1.[Gd+3] [Gd-DOTA, gadoteric acid]
ApoE-KO mice; i.v.
  half-life of elimination in plasma: 15 min
[1]; after 30 min washing
  Gd concentration after first washing step (mean value): < 0.8 nmol/section
[1]
  ex vivo MRI enhancement of the sections: strong, but diffuse, enhancement
  amount of Gd in the sections by ICP-MS (mean value): 3-9 nmol/section
[2]
  enhancement of atherosclerotic human sections (MRI ex vivo and Gd quantification): not

## CC(C)C[C@@H](NC(=O)[C@@H]1CCCN1C(=O)CNC(=O)c1ccc(NC(=S)Nc2ccc(CCC(C(=O)O)N3CCN(CC(=O)O)CCN(CC(=O)O)CCN(CC(=O)O)CC3)cc2)cc1)C(=O)N[C@@H](C)C(=O)NO (some centres unmarked) [Compound B]
Human MMP-1 [3]
  inhibitory activity on MMP-1 (in words): effective
Human MMP-2 [4]
  inhibitory activity on MMP-2 (in words): effective
[5]
  half-life: 15 min
ApoE-KO mice; artery specimen, 60 min post-injection, p<0.01
  concentration in the arterial wall compared to Dotarem: 3-3.5 times
[1]; 30 min preliminary incubation with free peptide 5×10^−3 M, then 18 h incubation, 30 min washing
  ex vivo MRI enhancement after inhibition/competition with free peptide: very faint enhancement
[1]
  ex vivo MRI enhancement of the sections: strong but more delineated enhancement
  amount of Gd in the sections by ICP-MS (mean value): 5-11 nmol/section
[1]; incubated 3 h or 18 h, after 30 min and 1 h of washing
  mean Gd concentration after washing: 1-8 nmol/section
[2]
  enhancement of atherosclerotic human sections (MRI ex vivo and Gd quantification): able to enhance

## p-aminobenzoyl-Gly-Pro-D-Leu-D-Ala-NHOH [Peptide]
Human MMP-1 [3]; MMP-1, test concentration 1.0E−05 M
  % inhibition of control values: 46%
Human MMP-1 [3]; MMP-1, test concentration 1.0E−07 M
  % inhibition of control values: 10%
Human MMP-1 [3]; MMP-1, test concentration 1.0E−09 M
  % inhibition of control values: 9%
Human MMP-1 [3]
  inhibitory activity on MMP-1 (in words): effective
Human MMP-2 [4]; MMP-2, test concentration 1.0E−04 M
  % inhibition of control values: 94%
Human MMP-2 [4]; MMP-2, test concentration 1.0E−05 M
  % inhibition of control values: 68%
Human MMP-2 [4]; MMP-2, test concentration 1.0E−07 M
  % inhibition of control values: 5%
Human MMP-2 [4]
  inhibitory activity on MMP-2 (in words): effective
Human MMP-3 [6]
  inhibitory activity on MMP-3 (in words): no activity
Human MMP-3 [6]; MMP-3, test concentration 1.0E−05 M
  % inhibition of control values: 8%
Human MMP-3 [6]; MMP-3, test concentration 1.0E−07 M
  % inhibition of control values: 4%
Human MMP-3 [6]; MMP-3, test concentration 1.0E−09 M
  % inhibition of control values: 0%
Human MMP-1 [7]
  IC50: 1 µM
Human MMP-2 [8]
  IC50: 30 µM
Human MMP-3 [9]
  IC50: 150 µM
